Source: patent US9995734B2, “Human T cell line assay for evaluating the immunologic identity of glatiramer acetate preparations” (Mylan Inc., priority 2013, dated 2018)

What was measured:
[1] = system: Donor 4 COP T-cell lines (205-1D1, 205-1H7, 205-1F4); experiment: MHC DR restriction testing (ATP proliferation with autologous and partially HLA-DR matched B-LCL), Donor 4 COP T-cell lines; type: cell-based, human; settings: for Proliferation with antigen-incubated B-LCL, Mean: T-cell line 205-1F4
Description: MHC DR restriction testing of cell lines was carried out by measuring the proliferation response of the cell lines as described above in the presence of an array of APC selected based on the known HLA-DR loci of the original PBMC donor for the cell line tested, including autologous APC (B-LCL). The donors used are described in Table 2.
To define the MHC molecule used to present antigen to GA specific T cell lines, GA specific responses were measured in the presence of autologous APC and in the presence of APC matching one of the T cell donor's HLA-DR alleles. Therefore at least 3 APC were used in each experiment: autologous APC, APC matching DR allele 1 but not allele 2 and a third APC matching allele 2 but not allele 1. In some experiments a fourth APC B-LCL was used. A no antigen negative control was used. APC were inactivated by incubation with 50 ug/mL mitomycin C. Following inactivation, cells were washed three times to remove mitomycin C and suspended in X-VIVO 15 medium at 1×10^6 cells per mL. GA was added to the cell suspension to a final concentration of 20-60 μg/mL. The cells were incubated with antigen for 1 hour at 37° C. to allow antigen uptake and binding. The cell suspension was then centrifuged to pellet the cells and the cell pellet was washed once with medium. APC were adjusted to 2×10^5 cells per mL in X-VIVO 15 medium and added to opaque 96-well plates at 100 μL per well. T-cell suspensions of 2-4×10^5 cells per mL (unless otherwise specified) were added to the 96-well plates at 100 μL per well and the cultures incubated 4 days before measuring cell numbers using CellTiter Glo® (to evaluate proliferation).
Alternatively, APC were not pulsed. Instead, each well contained 10 ug/mL antigen, 50 μl APC and 100 μL of T cells.
After incubating for 4 days at 37° C. (5% CO2), 100 μL were removed from each well, combined with 100 μL CellTiterGlo reagent, and luminescence was measured using a Packard Fusion. Results were expressed in relative light units (RLU).
As described in the Methods, T-cell lines were tested for MHC restriction by measuring proliferation following incubation with APC. Mitomycin-treated autologous APC, and test APC, e.g., from donors having at least one HLA-DR match with the original PBMC donor were employed. The values in the data tables below are in RLU.
(§1) Donor 4 T-cell line 205-1D1 was assayed for proliferation, using autologous B-LCL, and B-LCL from Donors 1, 2, and 6 that had been incubated in the presence or absence of 60 μg/mL COP. T-cell line 205-1D1 was restimulated 5 times (not including the initial stimulation) with antigen before the MHC restriction assay was carried out. The results, shown in Table 73, indicate that 205-1D1 is restricted by HLA-DRβ1*13.
as §1, with “205-1H7” for “205-1D1”, “40” for “60”, “74 and FIG. 14B,” for “73,”
Donor 4 T-cell line 205-1F4 and 205-1C4 was assayed for proliferation, using autologous B-LCL, and B-LCL from Donors 1, 2, and 6 that had been incubated in the presence or absence of 40 μg/mL COP. T-cell line 205-1F4 was restimulated 7 times (not including the initial stimulation) with antigen before the MHC restriction assay was carried out. The results, shown in Table 75, indicate that 205-1F4 is restricted by HLA-DRβ1*13.

[2] = system: Donor 2 Human T-Cell Lines; experiment: BrdU uptake proliferation assay, Donor 2 T-cell lines stimulated with GMA; type: cell-based; settings: 100 μg/mL GMA; for BrdU uptake: Day 13
Description: Proliferation was evaluated by measuring ATP content using a luminescent method (CellTiter Glo Luminescent Cell Viability Assay, Promega, Madison, Wis., cat. #G7571) or by measuring BrdU uptake by ELISA (Millipore cat. #2752), in both cases following kit instructions. A split well format was used. Cells in each well were resuspended and 65 μl transferred to the wells of each of two new U-bottom 96-well plates, to generate the replicate plates. […] Therefore, all three plates received autologous APC (PBMC) treated with mitomycin C to prevent cell division. […] The latter two plates were incubated for 3 days at 37° C., 6% CO2 before adding CellTiter Glo or BrdU and measuring signal. IL-2 was added at 10 U/mL to the original 96-well plate for expansion on Day 17. For subsequent screenings, mitomycin-treated EBV-transformed autologous B-LCL (2×10^5 to 5×10^5 cells/mL) were used as APC.
PBMC were obtained from a normal, healthy, donor having MHC Class II HLA-DRβ1 04:01, 04:04 (Donor 2). […] Nine presumptive GA-specific human T-cell lines were selected for expansion and further analysis based on an increase in the OD of the GA-stimulated test sample of at least 50% relative to an unstimulated control sample.

Substance: glatiramer acetate [COP]
- Proliferation with antigen-incubated B-LCL ([1]; T-cell line 205-1D1, B-LCL Donor 1 DRβ1*04:01/DRβ1*07:01, 60 μg/mL): 1504.7 RLU
- Proliferation with antigen-incubated B-LCL ([1]; T-cell line 205-1D1, B-LCL Donor 2 DRβ1*04:01/DRβ1*04:04, 60 μg/mL): 1203.7 RLU
- Proliferation with antigen-incubated B-LCL ([1]; T-cell line 205-1D1, B-LCL Donor 4 (autologous) DRβ1*07/DRβ1*13, 60 μg/mL): 231113.0 RLU
- Proliferation with antigen-incubated B-LCL ([1]; T-cell line 205-1D1, B-LCL Donor 6 DRβ1*15:01/DRβ1*13, 60 μg/mL): 203780.3 RLU
- Proliferation with antigen-incubated B-LCL, Mean ([1]; APC donor 1 *04:01, *07, 40 μg/mL): 11323 RLU
- Proliferation with antigen-incubated B-LCL, Mean ([1]; APC donor 2 *04:01*04:04, 40 μg/mL): 1786 RLU
- Proliferation with antigen-incubated B-LCL, Mean ([1]; APC donor 4 (autologous) *07, *13, 40 μg/mL): 84094 RLU
- Proliferation with antigen-incubated B-LCL, Mean ([1]; APC donor 6 *13, *15, 40 μg/mL): 113079 RLU
- Proliferation with antigen-incubated B-LCL ([1]; T-cell line 205-1H7, B-LCL Donor 1 DRβ1*04:01/DRβ1*07:01, 40 μg/mL): 8430 RLU
- Proliferation with antigen-incubated B-LCL ([1]; T-cell line 205-1H7, B-LCL Donor 2 DRβ1*04:01/DRβ1*04:04, 40 μg/mL): 2065 RLU
- Proliferation with antigen-incubated B-LCL ([1]; T-cell line 205-1H7, B-LCL Donor 4 (autologous) DRβ1*07/DRβ1*13, 40 μg/mL): 32418 RLU
- Proliferation with antigen-incubated B-LCL ([1]; T-cell line 205-1H7, B-LCL Donor 6 DRβ1*15:01/DRβ1*13, 40 μg/mL): 30583 RLU

Substance: glatiramer acetate [GMA]
- BrdU uptake ([2]; 206-1A6, control 0.220): 0.563 OD450
- BrdU uptake ([2]; 206-1A7, control 0.329): 0.688 OD450
- BrdU uptake ([2]; 206-1A11, control 0.151): 0.452 OD450
- BrdU uptake ([2]; 206-1C12, control 0.272): 0.626 OD450
- BrdU uptake ([2]; 206-1H1, control 0.109): 0.447 OD450
- BrdU uptake ([2]; 206-1H2, control 0.095): 0.526 OD450
- BrdU uptake ([2]; 206-2A1, control 0.259): 0.548 OD450
- BrdU uptake ([2]; 206-2A10, control 0.162): 0.444 OD450
- BrdU uptake ([2]; 206-2C3, control 0.146): 0.358 OD450
- difference in BrdU uptake from control ([2]; nine Donor 2 lines of Table 17): greater than two-fold
- increase in the OD of the GA-stimulated test sample relative to an unstimulated control sample ([2]; nine Donor 2 lines of Table 17): at least 50%
